A word on the thermodynamic solubility: it is the concentration in solution at equilibrium with solid. As usually defined, the melting point is the temperature, or range, at which the solid turns liquid. The DC50 is the concentration at which degradation of the target reaches its halfway point. Low values mean degradation at low concentration, high ones degradation only at high concentration. In general, Dmax refers to the greatest extent of degradation seen.

The values that follow come from paper PMC9706574, “A Versatile and Sustainable Multicomponent Platform for the Synthesis of Protein Degraders: Proof-of-Concept Application to BRD4-Degrading PROTACs” (Journal of Medicinal Chemistry, 2022).

A short description of series [1]: Thermodynamic aqueous solubility. The class given is physicochemical. The procedure:
Saturated solutions were prepared by dissolving the tested compounds in 0.1 M phosphate-buffered saline (pH = 7.4) or 0.01 N HCl solutions and sonicated for 30 s. After equilibration on an orbital shaker at 25 °C for 2 h, the solutions were centrifuged at 13 000 rpm for 5 min and filtered through a 0.2 μm regenerated cellulose (RC) syringe filter. A 400 μL aliquot of each filtrate was diluted with 100 μL of acetonitrile and analyzed by LC-UV. When the measured peak area was out of the calibration range (5–100 μM), the sample was further diluted in water–acetonitrile 1:1 mixture.

The next series deals with T1, BRD4 (Homo sapiens, UniProt O60885).
T1 construct: endogenous in cells; host or cells: MDA-MB-231
In words: BRD4 degradation by Western blot analysis in MDA-MB-231 cells. The class given is cell-based. The following applies: for dose-response of BRD4 degradation (in words): 100 nM to 10 μM; for effect of cotreatment with proteasome inhibitor bortezomib on BRD4 degradation: 1 μM compound + 5 nM bortezomib; for BRD4 degradation in time-course experiments (in words) / Densitometry (% of control), BRD4-immunoreactive band relative to DMSO vehicle: 1 μM; for BRD4 degradation in time-course experiments (in words): 4 up to 24 h. The method, then: In Vitro Biological Validation of PROTACs and Preliminary Assessment of Thermodynamic Aqueous Solubility and Metabolic Stability of Selected BRD4-Degrading PROTACs. With the aim of proving the utility of our platform and the compatibility of the substructures accessible by the MCR strategy with a proximity-based degradation, the ability of our PROTAC candidates to effectively act as BRD4 degraders was tested in the human breast cancer cell line MDA-MB-231, known to express detectable levels of this protein.
The human breast adenocarcinoma MDA-MB-231 cell line was cultured in DMEM (Sigma-Aldrich) supplemented with 10% fetal bovine serum (FBS), 1% glutamine, and 1% penicillin/streptomycin. For Western blot analysis, […] cells/well were plated into 12-well plates containing DMEM complete growth medium, to be treated with the synthesized compounds, at the indicated concentrations, for different time lengths. After treatments, cells were scraped and lysed to obtain protein extract using RIPA lysis buffer supplemented with protease (PIC, Merck-Millipore) and phosphatase inhibitors (NaF 1 M, Na3VO4 1 M, PMSF […], Sigma-Aldrich). Cells lysates were centrifuged at 13 000 rpm for 10 min at 4 °C to remove membranes and insoluble fractions. Protein quantification of the supernatant fraction was performed with Braford protein assay (Sigma-Aldrich). […] aliquots of protein extracts were used for 12% SDS-PAGE. After transfer into nitrocellulose membranes, BRD4 and tubulin protein levels were evaluated by immunoblotting using a rabbit polyclonal anti-BRD4 (Bethyl Laboratories) and a mouse monoclonal α-tubulin (Sigma-Aldrich) IgG as primary antibodies and an antirabbit or antimouse HRP-conjugated secondary antibody (Bio-Rad Laboratories). Protein levels were detected by chemiluminescent conversion of the HRP substrate LumiGLO (Thermo Fisher Scientific) using the ChemiDoc imaging system (Bio-Rad). Band densitometry was assessed, normalized to α-tubulin immunoreactive bands, and reported as percentage of the 0.3% DMSO control lane.

Series [2] is described as follows: Metabolic stability in mouse liver microsomes (MLM). The series is classed as in vitro ADME. For orientation: Microsomes from liver hold many membrane-bound enzymes, among them those of drug oxidation.
Method: To this aim, we evaluated the metabolic stability of the five selected PROTACs in mouse liver microsomes (MLM).
Mouse liver microsomes (MLM) (pooled male mouse CD-1, protein concentration: 20 mg/mL) were purchased from Corning B.V. Life Sciences (Amsterdam, The Netherlands). The standard incubation mixture (250 μL final volume) was carried out in a 50 mM Tris (tris[hydroxymethyl]aminomethane) buffer (pH 7.4) containing 150 mM KCl, 1.5 mM, 3.3 mM MgCl2, 1.3 mM NADPNa2, 3.3 mM glucose 6-phosphate, 0.4 units/mL glucose 6-phosphate dehydrogenase, acetonitrile as cosolvent (1% of total volume), and the substrate (50 μM). After pre-equilibration of the mixture, an appropriate volume of MLM suspension was added to give a final protein concentration of 1.0 mg/mL. The mixture was shaken for 60 min at 37 °C. Control incubations were carried out without the presence of an NADPH-regenerating system or microsomes. Each incubation was stopped by the addition of 250 μL of ice-cold acetonitrile, vortexed, and centrifuged at 13 000 rpm for 5 min. The supernatants were analyzed by LC-UV.
Details of series [3]: method as in PMID 28378579. The following applies: cited from earlier work.
Details of series [4]: method as in PMID 33026811. The following applies: physiological pH, in 3 h; cited from earlier work.
The mark [5] stands for this setting: 0.01 N HCl solution, HCl 0.01 N, pH 2.0, 25 °C.
Where [6] appears, read: phosphate-buffered saline, PBS 0.1 M, pH 7.4, 25 °C.
Where [7] appears, read: 8 h treatment, MDA-MB-231 cells, from Western blot densitometry.

Values after ≈ are worked out from the molar mass of the structure shown. Marks after values point to notes of the source that are not given here.

Turning to `Cc1sc2c(c1C)C(c1ccc(Cl)cc1)=N[C@@H](CC(=O)NCC(=O)NCCCOc1cccc3c1C(=O)N(C1CCC(=O)NC1=O)C3=O)c1nnc(C)n1-2` (stereo partly drawn) [Compound 27, 2-((S)-4-(4-Chlorophenyl)-2,3,9-trimethyl-6H-thieno[3,2-f][1,2,4]triazolo[4,3-a][1,4]diazepin-6-yl)-N-(2-((3-((2-(2,6-dioxopiperidin-3-yl)-1,3-dioxoisoindolin-4-yl)oxy)propyl)amino)-2-oxoethyl)acetamide], the melting point is 221.3 to 223.6 °C (dec.). The molecule further registered a solubility (thermodynamic) at 2 h in series [1] (setting [5]) of 145 µM (≈ 112 µg/mL). Besides, the solubility (thermodynamic) at 2 h in series [1] (setting [6]) was determined as 48 µM (≈ 37 µg/mL). In addition, the “dose-response of BRD4 degradation (in words)” value (“dose-response” below) on BRD4 (8 h, MDA-MB-231 cells) was “showed dose-dependency”. The “effect of cotreatment with proteasome inhibitor bortezomib on BRD4 degradation” value at BRD4 (8 h) is “abolish BRD4 degradation”. For the same molecule, the “BRD4 degradation in time-course experiments (in words)” value on BRD4 (MDA-MB-231 cells) was “decreased expression of BRD4 at all the time-points tested”. In addition, on BRD4 (setting [7]), half-maximal degradation (DC50) was put at 97.1 nM. For the same molecule, the Dmax on BRD4 (8 h treatment, MDA-MB-231 cells, from Western blot densitometry, read-out: Dmax (maximal % of reduction toward DMSO control lane)) was found to be 88%.

`Cc1sc2c(c1C)C(c1ccc(Cl)cc1)=N[C@@H](CC(=O)NCC(=O)NCCCCOc1cccc3c1C(=O)N(C1CCC(=O)NC1=O)C3=O)c1nnc(C)n1-2` (stereo partly drawn) [Compound 28, 2-((S)-4-(4-Chlorophenyl)-2,3,9-trimethyl-6H-thieno[3,2-f][1,2,4]triazolo[4,3-a][1,4]diazepin-6-yl)-N-(2-((4-((2-(2,6-dioxopiperidin-3-yl)-1,3-dioxoisoindolin-4-yl)oxy)butyl)amino)-2-oxoethyl)acetamide]: the melting point was 231.9 to 232.6 °C (dec.). The thermodynamic solubility at 2 h in series [1] (setting [5]) was determined as 48 µM (≈ 37.7 µg/mL). For the same molecule, the solubility (thermodynamic) at 2 h in series [1] (setting [6]) was 17 µM (≈ 13.3 µg/mL).

Consider `Cc1sc2c(c1C)C(c1ccc(Cl)cc1)=N[C@@H](CC(=O)NCC(=O)NCCCCCOc1cccc3c1C(=O)N(C1CCC(=O)NC1=O)C3=O)c1nnc(C)n1-2` (stereo partly drawn) [Compound 29, 2-((S)-4-(4-Chlorophenyl)-2,3,9-trimethyl-6H-thieno[3,2-f][1,2,4]triazolo[4,3-a][1,4]diazepin-6-yl)-N-(2-((5-((2-(2,6-dioxopiperidin-3-yl)-1,3-dioxoisoindolin-4-yl)oxy)pentyl)amino)-2-oxoethyl)acetamide], for which the melting point was 223.4 to 225.1 °C (dec.). Moreover, in series [1] (setting [5]), the thermodynamic solubility at 2 h is 39 µM (≈ 31.2 µg/mL). The molecule also yielded a thermodynamic solubility at 2 h in series [1] (setting [6]) of 15 µM (≈ 12 µg/mL). For the same molecule, at BRD4 (8 h, MDA-MB-231 cells), the “dose-response” value was “degradation was observed only at 1 and 3 μM concentrations”. In addition, the “effect of cotreatment with proteasome inhibitor bortezomib on BRD4 degradation” value at BRD4 (8 h) was “abolish BRD4 degradation”. The “BRD4 degradation in time-course experiments (in words)” value at BRD4 (MDA-MB-231 cells) is reported as “decreased expression of BRD4 at all the time-points tested”. Half-maximal degradation at BRD4 (setting [7]) (DC50) was put at 184 nM.

As for `Cc1sc2c(c1C)C(c1ccc(Cl)cc1)=N[C@@H](CC(=O)N1CCN(CC(=O)NCCCCCOc3cccc4c3C(=O)N(C3CCC(=O)NC3=O)C4=O)CC1)c1nnc(C)n1-2` (stereo partly drawn) [Compound 34, 2-(4-(2-((S)-4-(4-Chlorophenyl)-2,3,9-trimethyl-6H-thieno[3,2-f][1,2,4]triazolo[4,3-a][1,4]diazepin-6-yl)acetyl)piperazin-1-yl)-N-(5-((2-(2,6-dioxopiperidin-3-yl)-1,3-dioxoisoindolin-4-yl)oxy)pentyl)acetamide], the melting point was 194.8 to 196.8 °C (dec.). Also, the solubility (thermodynamic) at 2 h in series [1] (setting [5]) is 5070 µM (≈ 4410 µg/mL). In series [1] (setting [6]), this molecule showed a thermodynamic solubility at 2 h of 11 µM (≈ 9.55 µg/mL). Further, at BRD4 (8 h, MDA-MB-231 cells), the “dose-response” value is reported as “showed the well-known “hook effect””. Besides, at BRD4 (8 h), the “effect of cotreatment with proteasome inhibitor bortezomib on BRD4 degradation” value is reported as “abolish BRD4 degradation”. The “BRD4 degradation in time-course experiments (in words)” value at BRD4 (MDA-MB-231 cells) was “decreased expression of BRD4 at all the time-points tested”. This molecule also came in with a DC50 at BRD4 (setting [7]) of 60 nM. The “concentration of maximal BRD4 degradation” value at BRD4 (dose-response 100 nM to 10 μM, 8 h, MDA-MB-231 cells) turned out to be 300 nM.

As to `Cc1sc2c(c1C)C(c1ccc(Cl)cc1)=N[C@@H](CC(=O)OCC(=O)NCCCCOc1cccc3c1C(=O)N(C1CCC(=O)NC1=O)C3=O)c1nnc(C)n1-2` (stereo partly drawn) [Compound 37, 2-((4-((2-(2,6-Dioxopiperidin-3-yl)-1,3-dioxoisoindolin-4-yl)oxy)butyl)amino)-2-oxoethyl2-((S)-4-(4-chlorophenyl)-2,3,9-trimethyl-6H-thieno[3,2-f][1,2,4]triazolo[4,3-a][1,4]diazepin-6-yl)acetate], the melting point was 105.2 to 107 °C (dec.). Also, the “metabolic stability in MLM (in words)” value in series [2] is recorded as “highly stable in MLM”. The solubility (thermodynamic) at 2 h in series [1] (setting [5]) came out at 18 µM (≈ 14.2 µg/mL). The “solubility at physiological pH (in words)” value in series [1] (pH 7.4) is “the least soluble”. The thermodynamic solubility at 2 h in series [1] (setting [6]) amounted to 8 µM (≈ 6.29 µg/mL).

Consider `Cc1ncsc1-c1ccc(CNC(=O)[C@@H]2C[C@@H](O)CN2C(=O)[C@@H](NC(=O)CNC(=O)CN2CCN(C(=O)C[C@@H]3N=C(c4ccc(Cl)cc4)c4c(sc(C)c4C)-n4c(C)nnc43)CC2)C(C)(C)C)cc1` [Compound 46, (2S,4R)-1-((S)-2-(2-(2-(4-(2-((S)-4-(4-Chlorophenyl)-2,3,9-trimethyl-6H-thieno[3,2-f][1,2,4]triazolo[4,3-a][1,4]diazepin-6-yl)acetyl)piperazin-1-yl)acetamido)acetamido)-3,3-dimethylbutanoyl)-4-hydroxy-N-(4-(4-methylthiazol-5-yl)benzyl)pyrrolidine-2-carboxamide], for which the melting point was in the range of 183.3 to 184.8 °C. At BRD4 (4 h, MDA-MB-231 cells), the “Densitometry (% of control), BRD4-immunoreactive band relative to DMSO vehicle” value is given as 61,7 % of control. In addition, the “Densitometry (% of control), BRD4-immunoreactive band relative to DMSO vehicle” value at BRD4 (8 h, MDA-MB-231 cells) was 135 % of control.

Consider `Cc1ncsc1-c1ccc(CNC(=O)[C@@H]2C[C@@H](O)CN2C(=O)[C@@H](NC(=O)CCCNC(=O)CN2CCN(C(=O)C[C@@H]3N=C(c4ccc(Cl)cc4)c4c(sc(C)c4C)-n4c(C)nnc43)CC2)C(C)(C)C)cc1` [Compound 47, (2S,4R)-1-((S)-2-(4-(2-(4-(2-((S)-4-(4-Chlorophenyl)-2,3,9-trimethyl-6H-thieno[3,2-f][1,2,4]triazolo[4,3-a][1,4]diazepin-6-yl)acetyl)piperazin-1-yl)acetamido)butanamido)-3,3-dimethylbutanoyl)-4-hydroxy-N-(4-(4-methylthiazol-5-yl)benzyl)pyrrolidine-2-carboxamide], for which the melting point was in the range of 164.3 to 165.5 °C. For the same molecule, the “Densitometry (% of control), BRD4-immunoreactive band relative to DMSO vehicle” value on BRD4 (4 h, MDA-MB-231 cells) is listed as 50 % of control. For the same molecule, on BRD4 (8 h, MDA-MB-231 cells), the “Densitometry (% of control), BRD4-immunoreactive band relative to DMSO vehicle” value is listed as 65,6 % of control.

Take `Cc1sc2c(c1C)C(c1ccc(Cl)cc1)=N[C@@H](CC(=O)NCCCCNC(=O)COc1cccc3c1C(=O)N(C1CCC(=O)NC1=O)C3=O)c1nnc(C)n1-2` (stereo partly shown) [dBET1]: the “Thermodynamic aqueous solubility, HCl 0.01 N (pH = 2.0)” value in series [3] (pH 2.0, literature data ref 58) is 171 ^c μM. Also, the “Thermodynamic aqueous solubility, PBS 0.1 M (pH = 7.4)” value in series [3] (pH 7.4, literature data ref 58) was 60 ^c μM.

As to `O=C1CCC(N2C(=O)c3ccccc3C2=O)C(=O)N1` (stereo not shown) [thalidomide], the hydrolytic degradation entry in series [4] is “about 30%”.
